The target in one assay is AXL (Homo sapiens (Human), UniProt P30530). Description: AXL autophosphorylation ELISA in A-172 cells. Format: cell-based. The settings on record: cellular, Gas6 stimulated. In a few lines:
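Serum-starved (24 h) A-172 glioblastoma cells pretreated 1 h with compounds (8-point curve, 0.3% DMSO), then stimulated 15 min with 1 μg/mL Gas6. Lysate phospho-AXL measured by sandwich ELISA against a phospho-AXL standard; IC50 from 4-parameter logistic fit between DMSO and reference-inhibitor controls.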

Assay [1] concerns the target Human Axl (residues H473-A894 with Q764R) (Homo sapiens (Human), UniProt P30530, Q764R). Description: Human AXL kinase assay (33P radiometric, KinaseProfiler). Format: biochemical. The settings on record: 10 μM ATP. The procedure:
Kinase activity and compound inhibition were investigated using the ^33P-Phosphoryl transfer radiometric kinase assay, performed using the KinaseProfiler™ service of Eurofins Pharma Discovery Services UK Limited. Dose-response experiments were performed using nine compound concentrations in a 96-well microtiter plate. For each assay, all compounds were prepared to a 50× final assay concentration (50 μM) in 100% DMSO, then diluted in a half-log series, with the final top concentration at 1 μM. This working stock of the compound was added to the assay well as the first component in the reaction, followed by the remaining components as detailed in the following assay protocols below. The positive control wells (100% kinase activity) contain all components of the reaction including 2% DMSO (control for solvent effects), except the compound of interest. Blank wells contain all components of the reaction, with the reference inhibitor, staurosporine. This reference compound was used to abolish kinase activity and generated the 0% kinase activity base-line. IC50 values were calculated by nonlinear regression analysis using the sigmoidal dose-response (variable slope) curve fit on XLFit version 5.3 (ID Business Solutions).
Human Axl (residues H473-A894 with Q764R, 161 nM) was incubated with 8 mM MOPS pH 7.0, 0.2 mM EDTA, 250 μM KKSRGDYMTMQIG (SEO ID NO. 43) 10 mM magnesium acetate and 10 μM [γ-33P-ATP]. The reaction was initiated by the addition of the Mg/ATP mix. After incubation for 40 minutes at room temperature, the reaction was stopped by the addition of phosphoric acid to a concentration of 0.5%. A reaction aliquot of 10 μL was then spotted onto a P30 filtermat and washed four times for 4 minutes in 0.425% phosphoric acid and once in methanol prior to drying and scintillation counting. Incorporated ^33P was measured using the Wallac Microbeta scintillation counter (Perkin Elmer).

Consider 23 compounds from patent US11542259B2, “Compounds for the treatment of kinase-dependent disorders” (Exelixis, Inc., priority 2018, dated 2023).

As a reminder, the pIC50 is −log10 of the IC50, conventionally taken in molar units. Higher therefore signals a low IC50.

pIC50: −log10 of the molar value. A value given as a limit tells only on which side of the number the result lay.

Human Axl (residues H473-A894 with Q764R), sequence (P30530 473-894 Q764R): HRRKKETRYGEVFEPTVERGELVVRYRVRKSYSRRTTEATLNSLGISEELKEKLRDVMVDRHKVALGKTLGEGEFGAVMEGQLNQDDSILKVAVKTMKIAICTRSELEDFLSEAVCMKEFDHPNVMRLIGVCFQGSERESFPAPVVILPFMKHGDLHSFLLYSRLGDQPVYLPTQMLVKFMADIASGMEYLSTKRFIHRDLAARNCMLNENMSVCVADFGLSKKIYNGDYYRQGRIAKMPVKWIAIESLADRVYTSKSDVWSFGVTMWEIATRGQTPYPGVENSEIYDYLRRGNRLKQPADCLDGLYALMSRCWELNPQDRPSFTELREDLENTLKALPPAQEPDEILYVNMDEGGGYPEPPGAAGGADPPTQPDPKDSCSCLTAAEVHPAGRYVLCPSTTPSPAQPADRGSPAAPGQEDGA
AXL, sequence (P30530 26-894): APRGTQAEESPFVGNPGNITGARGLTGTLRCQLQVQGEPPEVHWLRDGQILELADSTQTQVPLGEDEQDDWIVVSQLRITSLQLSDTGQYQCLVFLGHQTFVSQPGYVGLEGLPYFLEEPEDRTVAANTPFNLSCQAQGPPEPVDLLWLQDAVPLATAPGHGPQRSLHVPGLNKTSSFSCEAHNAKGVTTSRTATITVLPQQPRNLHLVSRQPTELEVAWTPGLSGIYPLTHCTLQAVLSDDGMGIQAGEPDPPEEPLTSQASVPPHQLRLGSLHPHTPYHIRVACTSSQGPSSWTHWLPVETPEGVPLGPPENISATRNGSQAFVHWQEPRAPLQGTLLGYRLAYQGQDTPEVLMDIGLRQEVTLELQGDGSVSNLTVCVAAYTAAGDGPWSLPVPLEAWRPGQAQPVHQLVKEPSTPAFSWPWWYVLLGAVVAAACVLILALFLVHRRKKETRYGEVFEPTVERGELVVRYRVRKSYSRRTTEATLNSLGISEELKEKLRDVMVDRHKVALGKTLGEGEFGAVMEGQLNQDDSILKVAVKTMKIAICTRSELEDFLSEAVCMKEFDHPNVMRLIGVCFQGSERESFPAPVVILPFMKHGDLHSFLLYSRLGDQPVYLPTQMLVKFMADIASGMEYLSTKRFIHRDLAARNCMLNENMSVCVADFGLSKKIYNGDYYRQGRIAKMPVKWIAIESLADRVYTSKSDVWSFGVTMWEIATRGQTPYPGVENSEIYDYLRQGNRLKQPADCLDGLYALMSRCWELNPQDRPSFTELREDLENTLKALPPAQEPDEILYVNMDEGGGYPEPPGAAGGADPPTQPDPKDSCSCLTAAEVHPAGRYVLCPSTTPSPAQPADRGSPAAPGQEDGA

Consider `COc1cc2nccc(Oc3ccc(NC(=O)C4(C(=O)Nc5ccc(F)cc5)CC4)cc3)c2cc1-c1ccncc1` [Compound 202, 1-N′-(4-Fluorophenyl)-1-N-[4-(7-methoxy-6-pyridin-4-ylquinolin-4-yl)oxyphenyl]cyclopropane-1,1-dicarboxamide], for which the pIC50 (on AXL; in assay [1]) was 7.00 to 8.00 each time.
As for `COc1cc2nccc(Oc3ccc(NC(=O)C4(C(=O)Nc5ccc(F)cc5)CC4)cc3)c2cc1-c1ccc[nH]1` [Compound 188, 1-N′-(4-fluorophenyl)-1-N-[4-[7-methoxy-6-(1H-pyrrol-2-yl)quinolin-4-yl]oxyphenyl]cyclopropane-1,1-dicarboxamide], the figures for the pIC50 (against AXL; in assay [1]) were not below 8.00 and 7.00 to 8.00, respectively.
Regarding `CNC(=O)c1cc2nccc(Oc3ccc(NC(=O)C4(C(=O)Nc5ccc(F)cc5)CC4)cc3)c2cc1OC` [Compound 153, 1-N′-(4-fluorophenyl)-1-N-[4-[6-methoxy-7-(methylcarbamoyl)quinolin-4-yl]oxyphenyl]cyclopropane-1,1-dicarboxamide], the pIC50 (against AXL; in assay [1]) was 7.00 to 8.00 each time.
`COc1cc2nccc(Oc3ccc(NC(=O)C4(C(=O)Nc5ccc(F)cc5)CC4)cc3)c2cc1N1CCC1` [Compound 198, 1-N-[4-[6-(azetidin-1-yl)-7-methoxyquinolin-4-yl]oxyphenyl]-1-N′-(4-fluorophenyl)cyclopropane-1,1-dicarboxamide]: the negative logarithm of the IC50 (pIC50) (at AXL; in assay [1]) was 7.00 to 8.00 throughout.
`COc1cc2nccc(Oc3ccc(NC(=O)C4(C(=O)Nc5ccc(F)cc5)CC4)cc3F)c2cc1C(=O)O` [Compound 131, 4-[2-fluoro-4-[[1-[(4-fluorophenyl)carbamoyl]cyclopropanecarbonyl]amino]phenoxy]-7-methoxyquinoline-6-carboxylic acid]: the pIC50 on AXL is less than 6.52; in assay [1] it was 7.00 to 8.00.
For `COc1cc2nccc(Oc3ccc(NC(=O)C4(C(=O)Nc5ccc(F)cc5)CC4)cc3)c2cc1C(=O)NC1CN(C)C1` [Compound 14, 1-N′-(4-fluorophenyl)-1-N-[4-[7-methoxy-6-[(1-methylazetidin-3-yl)carbamoyl]quinolin-4-yl]oxyphenyl]cyclopropane-1,1-dicarboxamide] the same measures were not below 8.00 and 7.00 to 8.00.
In the case of `COc1cc2nccc(Oc3ccc(NC(=O)C4(C(=O)Nc5ccc(F)cc5)CC4)cc3)c2cc1C1(O)COC1` [Compound 196, 1-N′-(4-fluorophenyl)-1-N-[4-[6-(3-hydroxyoxetan-3-yl)-7-methoxyquinolin-4-yl]oxyphenyl]cyclopropane-1,1-dicarboxamide], the pIC50 is 7.00 to 8.00 against AXL and not below 8.00 in assay [1].
The like results for `COc1cc2nccc(Oc3ccc(NC(=O)C4(C(=O)Nc5ccc(F)cc5)CC4)cc3)c2cc1-c1ccc(C)o1` [Compound 180, 1-N′-(4-fluorophenyl)-1-N-[4-[7-methoxy-6-(5-methylfuran-2-yl)quinolin-4-yl]oxyphenyl]cyclopropane-1,1-dicarboxamide] were, in that order, not below 8.00 and 7.00 to 8.00.
For `COc1cc2nccc(Oc3ccc(NC(=O)C4(C(=O)Nc5ccc(F)cc5)CC4)cc3Cl)c2cc1C(=O)O` [Compound 130, 4-[2-chloro-4-[[1-[(4-fluorophenyl)carbamoyl]cyclopropanecarbonyl]amino]phenoxy]-7-methoxyquinoline-6-carboxylic acid] the same measures were less than 6.52 and 7.00 to 8.00.
For `COc1cc2nccc(Oc3ccc(NC(=O)C4(C(=O)Nc5ccc(F)cc5)CC4)cc3)c2cc1C1(O)CNC1` [Compound 197, 1-N′-(4-fluorophenyl)-1-N-[4-[6-(3-hydroxyazetidin-3-yl)-7-methoxyquinolin-4-yl]oxyphenyl]cyclopropane-1,1-dicarboxamide] the same measures were 6.52 to 7.00 and 7.00 to 8.00.
Consider `COc1cc2nccc(Oc3ccc(NC(=O)C4(C(=O)Nc5ccc(F)cc5)CC4)cc3)c2cc1-c1cccc(C#N)c1F` [Compound 175, 1-N-[4-[6-(3-cyano-2-fluorophenyl)-7-methoxyquinolin-4-yl]oxyphenyl]-1-N′-(4-fluorophenyl)cyclopropane-1,1-dicarboxamide], for which the negative-log IC50 (pIC50) (at AXL; in assay [1]) was 7.00 to 8.00 each time.
As to `COC(=O)c1cc2nccc(Oc3ccc(NC(=O)C4(C(=O)Nc5ccc(F)cc5)CC4)cc3)c2cc1C` [Compound 140, methyl 4-[4-[[1-[(4-fluorophenyl)carbamoyl]cyclopropanecarbonyl]amino]phenoxy]-6-methylquinoline-7-carboxylate], the pIC50 (at AXL; in assay [1]) was 7.00 to 8.00 in each case.
Turning to `NC(=O)c1ccc2nccc(Oc3ccc(NC(=O)C4(C(=O)Nc5ccc(F)cc5)CC4)cc3)c2c1` [Compound 58, 1-N-[4-(6-carbamoylquinolin-4-yl)oxyphenyl]-1-N′-(4-fluorophenyl)cyclopropane-1,1-dicarboxamide], the pIC50 (against AXL; in assay [1]) was 7.00 to 8.00 each time.
As for `COc1cc2nccc(Oc3ccc(NC(=O)C4(C(=O)Nc5ccc(F)cc5)CC4)cc3)c2cc1C(=O)N1CCC1` [Compound 15, 1-N-[4-[6-(azetidine-1-carbonyl)-7-methoxyquinolin-4-yl]oxyphenyl]-1-N′-(4-fluorophenyl)cyclopropane-1,1-dicarboxamide], the pIC50 (against AXL; in assay [1]) was 7.00 to 8.00 each time.
As for `COC(=O)c1cc2nccc(Oc3ccc(NC(=O)C4(C(=O)Nc5ccc(F)cc5)CC4)cc3)c2cc1OC` [Compound 150, methyl 4-[4-[[1-[(4-fluorophenyl)carbamoyl]cyclopropanecarbonyl]amino]phenoxy]-6-methoxyquinoline-7-carboxylate], the pIC50 (on AXL; in assay [1]) was 7.00 to 8.00 throughout.
Regarding `COCCOc1cc2nccc(Oc3ccc(NC(=O)C4(C(=O)Nc5ccc(F)cc5)CC4)cc3)c2cc1C(N)=O` [Compound 103, 1-N-[4-[6-carbamoyl-7-(2-methoxyethoxy)quinolin-4-yl]oxyphenyl]-1-N′-(4-fluorophenyl)cyclopropane-1,1-dicarboxamide], the results for the pIC50 (on AXL; in assay [1]) were not below 8.00 and 7.00 to 8.00, respectively.
The like results for `COc1cc2nccc(Oc3ccc(NC(=O)C4(C(=O)Nc5ccc(F)cc5)CC4)cc3)c2cc1-c1c(C)noc1C` [Compound 184, 1-N-[4-[6-(3,5-dimethyl-1,2-oxazol-4-yl)-7-methoxyquinolin-4-yl]oxyphenyl]-1-N′-(4-fluorophenyl)cyclopropane-1,1-dicarboxamide] were, in that order, 6.52 to 7.00 and 7.00 to 8.00.
As for `CN1CC(NC(=O)c2ccc3nccc(Oc4ccc(NC(=O)C5(C(=O)Nc6ccc(F)cc6)CC5)cc4)c3c2)C1` [Compound 60, 1-N′-(4-fluorophenyl)-1-N-[4-[6-[(1-methylazetidin-3-yl)carbamoyl]quinolin-4-yl]oxyphenyl]cyclopropane-1,1-dicarboxamide], the pIC50 is 6.52 to 7.00 against AXL and 7.00 to 8.00 in assay [1].
The like results for `COC(=O)c1cc2c(Oc3ccc(NC(=O)C4(C(=O)Nc5ccc(F)cc5)CC4)cc3Cl)ccnc2cc1OC` [Compound 128, methyl 4-[2-chloro-4-[[1-[(4-fluorophenyl)carbamoyl]cyclopropanecarbonyl]amino]phenoxy]-7-methoxyquinoline-6-carboxylate] were, in that order, 7.00 to 8.00 and not below 8.00.
The like results for `COc1cc2nccc(Oc3ccc(NC(=O)C4(C(=O)Nc5ccc(F)cc5)CC4)cc3)c2cc1-c1cccnc1` [Compound 201, 1-N′-(4-Fluorophenyl)-1-N-[4-(7-methoxy-6-pyridin-3-ylquinolin-4-yl)oxyphenyl]cyclopropane-1,1-dicarboxamide] were, in that order, 7.00 to 8.00 and not below 8.00.
`COC(=O)c1ccc2c(Oc3ccc(NC(=O)C4(C(=O)Nc5ccc(F)cc5)CC4)cc3)ccnc2c1` [Compound 162, methyl 4-[4-[[1-[(4-fluorophenyl)carbamoyl]cyclopropanecarbonyl]amino]phenoxy]quinoline-7-carboxylate]: the pIC50 against AXL is less than 6.52; in assay [1] it was 7.00 to 8.00.
For `COc1cc2nccc(Oc3ccc(NC(=O)C4(C(=O)Nc5ccc(F)cc5)CC4)cc3)c2cc1N1CC(F)(F)C1` [Compound 200, 1-N-[4-[6-(3,3-difluoroazetidin-1-yl)-7-methoxyquinolin-4-yl]oxyphenyl]-1-N′-(4-fluorophenyl)cyclopropane-1,1-dicarboxamide] the same measures were 7.00 to 8.00 and 7.00 to 8.00.
With `NC(=O)c1cc2c(Oc3ccc(NC(=O)C4(C(=O)Nc5ccc(F)cc5)CC4)cc3)ccnc2cc1F` [Compound 67, 1-N-[4-(6-carbamoyl-7-fluoroquinolin-4-yl)oxyphenyl]-1-N′-(4-fluorophenyl)cyclopropane-1,1-dicarboxamide], the pIC50 is 6.52 to 7.00 against AXL and 7.00 to 8.00 in assay [1].
